These results are taken from ChEMBL document CHEMBL1201862, “PubChem BioAssay data set” (2004).

Active and inactive are the calls of the source.

In data set [1] the target is Cytochrome P450 2C9 (Homo sapiens, UniProt P11712).
A short description of data set [2]: alpha-synuclein stem-loop luciferase translation blockers – H4 neuroglioma cells, luminescence, confirmation (AID 1988). The class given is functional, cell-based.
Data set [3] can be described thus: luciferase reporter signal suppression in cells – H4 neuroglioma cells, luminescence, dose response (AID 1990). The data set is classed as functional, cell-based.
The target in data set [4] is T1, Short transient receptor potential channel 4 (Mus musculus, UniProt Q9QUQ5).
T1 sequence (Q9QUQ5 whole entry): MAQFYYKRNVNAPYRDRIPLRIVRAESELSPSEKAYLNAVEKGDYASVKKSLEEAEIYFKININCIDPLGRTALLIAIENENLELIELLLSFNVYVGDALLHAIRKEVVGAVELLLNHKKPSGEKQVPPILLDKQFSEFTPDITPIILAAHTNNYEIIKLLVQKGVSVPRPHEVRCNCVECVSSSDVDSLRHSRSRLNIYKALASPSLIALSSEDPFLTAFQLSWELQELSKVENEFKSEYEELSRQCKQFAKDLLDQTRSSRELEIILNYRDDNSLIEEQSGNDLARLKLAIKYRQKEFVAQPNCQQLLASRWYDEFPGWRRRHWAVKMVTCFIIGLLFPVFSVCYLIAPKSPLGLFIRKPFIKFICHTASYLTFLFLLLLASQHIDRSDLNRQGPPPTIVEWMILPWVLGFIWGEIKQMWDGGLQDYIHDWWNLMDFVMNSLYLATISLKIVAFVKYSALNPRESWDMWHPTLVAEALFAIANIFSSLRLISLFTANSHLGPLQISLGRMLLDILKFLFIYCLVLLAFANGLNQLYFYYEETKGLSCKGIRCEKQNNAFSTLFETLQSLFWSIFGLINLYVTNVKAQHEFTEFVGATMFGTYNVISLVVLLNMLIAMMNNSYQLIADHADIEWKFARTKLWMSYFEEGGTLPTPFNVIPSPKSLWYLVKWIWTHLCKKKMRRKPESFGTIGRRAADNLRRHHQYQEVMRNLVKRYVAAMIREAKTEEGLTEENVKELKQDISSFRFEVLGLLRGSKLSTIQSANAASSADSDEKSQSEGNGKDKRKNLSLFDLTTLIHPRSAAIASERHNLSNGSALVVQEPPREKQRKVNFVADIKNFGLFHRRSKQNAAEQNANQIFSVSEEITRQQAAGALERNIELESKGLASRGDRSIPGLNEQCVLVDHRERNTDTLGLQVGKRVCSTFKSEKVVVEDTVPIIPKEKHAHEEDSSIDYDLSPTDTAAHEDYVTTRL
The data set is described as follows: block of DAMGO-driven TRPC4 calcium entry – cell-based, HEK293 TRPC4/mu-opioid, Fluo-4 calcium, dose response (AID 434942).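 Also: potency of inhibitors blocking the TRPC4 calcium response.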 The data set is classed as functional.

Data set [5] is described as follows: Luminescence Cell-Based Dose Response HTS to Identify Inhibitors of 5'UTR Stem-Loop Driven Prion Protein mRNA Translation in H4 Neuroglioblastoma Cells. [Related pubchem assays: 1827 (Project Summary), 1813 (Primary HTS)]. The class given is functional.
The target in data set [6] is T2, Microphthalmia-associated transcription factor (Homo sapiens, UniProt O75030).
T2 sequence (O75030 whole entry): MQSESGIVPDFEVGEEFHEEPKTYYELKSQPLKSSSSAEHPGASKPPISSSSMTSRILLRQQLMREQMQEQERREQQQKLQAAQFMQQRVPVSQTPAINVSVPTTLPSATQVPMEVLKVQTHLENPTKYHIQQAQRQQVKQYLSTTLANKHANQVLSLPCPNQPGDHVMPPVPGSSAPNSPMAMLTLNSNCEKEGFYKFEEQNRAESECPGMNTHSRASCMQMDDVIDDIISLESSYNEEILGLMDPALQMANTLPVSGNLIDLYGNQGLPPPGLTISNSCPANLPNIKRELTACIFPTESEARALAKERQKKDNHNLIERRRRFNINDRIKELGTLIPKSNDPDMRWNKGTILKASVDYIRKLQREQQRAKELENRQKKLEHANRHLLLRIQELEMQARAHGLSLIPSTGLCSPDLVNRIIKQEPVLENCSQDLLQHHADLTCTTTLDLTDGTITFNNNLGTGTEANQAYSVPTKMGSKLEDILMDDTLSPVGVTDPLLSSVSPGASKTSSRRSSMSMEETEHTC
The data set is described as follows: reducers of TRPM1 reporter luminescence, concentration series – cell-based, SK-MEL-5, cherry-picked, set 3, MITF inhibitor project, dose response (AID 493073).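 Also: SK-MEL-5 melanoma cells with luciferase driven by the MITF target TRPM1 promoter.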 The data set is classed as functional.

In data set [7] the target is T3, Polyadenylate-binding protein 1 (Homo sapiens, UniProt P11940). Description: MLLE binding blockers, Cy5 peptide tracer – biochemical, fluorescence polarization, Cy5-PAM2 peptide, secondary, miRNA deadenylation inhibitor project, dose response (AID 602260). The data set is classed as functional. Particulars: read-out: IC50_Mean.
T3 sequence (P11940 whole entry, the tested form may be a part): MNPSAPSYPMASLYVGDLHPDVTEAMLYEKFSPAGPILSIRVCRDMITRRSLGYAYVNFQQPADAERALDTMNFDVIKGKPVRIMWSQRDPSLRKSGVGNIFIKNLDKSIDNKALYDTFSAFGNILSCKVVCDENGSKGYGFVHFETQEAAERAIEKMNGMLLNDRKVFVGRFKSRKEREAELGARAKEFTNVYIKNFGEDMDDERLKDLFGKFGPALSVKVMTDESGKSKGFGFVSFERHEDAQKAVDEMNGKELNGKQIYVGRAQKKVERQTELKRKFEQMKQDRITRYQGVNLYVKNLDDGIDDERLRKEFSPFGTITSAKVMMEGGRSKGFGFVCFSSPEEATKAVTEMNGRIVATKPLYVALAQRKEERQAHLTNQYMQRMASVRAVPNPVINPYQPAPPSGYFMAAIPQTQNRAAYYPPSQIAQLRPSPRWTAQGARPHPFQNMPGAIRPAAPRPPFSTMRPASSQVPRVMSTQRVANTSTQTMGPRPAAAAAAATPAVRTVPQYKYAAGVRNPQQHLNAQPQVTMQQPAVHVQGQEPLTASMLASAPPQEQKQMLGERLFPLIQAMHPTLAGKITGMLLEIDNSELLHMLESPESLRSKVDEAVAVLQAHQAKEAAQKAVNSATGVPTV
The target in data set [8] is T3, Polyadenylate-binding protein 1. Description: MLLE domain peptide-binding blockers, IC50 – biochemical, fluorescence polarization, FITC-PAM2 peptide, dose response (AID 602259). The data set is classed as functional. Particulars: read-out: IC50_Mean.
Data set [9] is described as follows: blockers of HIV-1 envelope-mediated cell-cell fusion – cherry-pick, dose response (AID 652057). The data set is classed as functional, cell-based.
The nature of data set [10]: viability loss in CEM21 cells – cell-based, CellTiter-Glo luminescence, cherry-picked, cytotoxicity control for viral fusion inhibitor project, dose response (AID 652042).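 Also: potency for signal decrease meaning cytotoxicity.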 The data set is classed as functional.
A short description of data set [11]: HIV-1 AD8 envelope cell-cell fusion blockers – cherry-pick, dose response (AID 652062).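 Also: luciferase signal from cell-cell fusion driven by HIV-1 clade B AD8 Env; potency is for inhibitors of fusion seen as a drop in luminescence.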 The class given is functional, cell-based.
A short description of data set [12]: off-target signal loss in HeLa-CEM21 co-culture – HeLa F-luc CTL cells, cherry-picked, counter-screen for HIV-1 Env fusion inhibitor project, dose response (AID 652040).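 Also: potency for signal decrease marking cytotoxic or nonspecific inhibition.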 The data set is classed as functional, cell-based.
Data set [13] is described as follows: blockers of HIV-1 ZM109 envelope-driven cell-cell fusion – HeLa effector, CEM target cells, luciferase, cherry-pick, dose response (AID 652058).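 Also: luciferase signal from HIV-1 Env mediated cell-cell fusion of effector and target cells.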 The data set is classed as functional, cell-based.
For data set [14], the target named is Cytochrome P450 3A4 (Homo sapiens, UniProt P08684).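 Also: CYP3A4 tested as one member of a cytochrome P450 panel screen.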
Sequence of Cytochrome P450 3A4 (P08684 whole entry): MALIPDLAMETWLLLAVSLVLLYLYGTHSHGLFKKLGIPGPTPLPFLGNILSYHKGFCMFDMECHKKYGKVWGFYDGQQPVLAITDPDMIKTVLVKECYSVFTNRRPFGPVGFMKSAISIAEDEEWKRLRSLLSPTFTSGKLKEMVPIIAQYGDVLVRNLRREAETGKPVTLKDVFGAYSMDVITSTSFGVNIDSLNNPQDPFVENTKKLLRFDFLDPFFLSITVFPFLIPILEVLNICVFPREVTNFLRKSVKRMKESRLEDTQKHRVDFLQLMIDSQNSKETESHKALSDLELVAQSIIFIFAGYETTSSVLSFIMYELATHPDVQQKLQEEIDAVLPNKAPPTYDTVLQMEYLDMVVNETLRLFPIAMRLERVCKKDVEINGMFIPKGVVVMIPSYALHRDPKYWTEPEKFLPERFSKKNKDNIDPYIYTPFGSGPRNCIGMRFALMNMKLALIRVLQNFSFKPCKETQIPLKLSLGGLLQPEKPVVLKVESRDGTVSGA
The target in data set [15] is Cytochrome P450 2C19 (Homo sapiens, UniProt P33261). Description: Cytochrome panel assay with activity outcomes. Panel member name: p450-cyp2c19 Compounds with AC50 equal or less than 10 uM are considered active. The data set is classed as functional.
Sequence of Cytochrome P450 2C19 (P33261 whole entry): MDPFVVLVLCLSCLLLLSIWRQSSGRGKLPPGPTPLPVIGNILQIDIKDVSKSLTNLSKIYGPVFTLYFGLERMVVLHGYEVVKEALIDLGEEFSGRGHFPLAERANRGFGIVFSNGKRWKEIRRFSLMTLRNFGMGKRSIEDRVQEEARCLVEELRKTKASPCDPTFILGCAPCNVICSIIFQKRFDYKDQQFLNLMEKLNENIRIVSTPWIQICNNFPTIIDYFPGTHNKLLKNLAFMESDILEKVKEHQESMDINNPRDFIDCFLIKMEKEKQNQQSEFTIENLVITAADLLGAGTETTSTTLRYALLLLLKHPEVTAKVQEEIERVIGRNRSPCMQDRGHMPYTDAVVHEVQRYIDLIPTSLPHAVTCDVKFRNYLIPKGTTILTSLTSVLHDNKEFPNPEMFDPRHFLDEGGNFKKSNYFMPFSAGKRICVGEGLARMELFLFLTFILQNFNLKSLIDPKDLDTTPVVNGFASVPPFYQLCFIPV
Data set [16] has as its system HEK293. Description: cells. Particulars: Homo sapiens.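 Also: cells exposed to compound for 14 hours overnight before viability readout.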
The target of data set [17] is Tumor necrosis factor (Homo sapiens, UniProt P01375). The data set is described as follows: analog potency on TNFa NF-kB signaling – cell-based, revised, SAR follow-up (AID 2337). The data set is classed as functional.
Sequence of Tumor necrosis factor (P01375 whole entry): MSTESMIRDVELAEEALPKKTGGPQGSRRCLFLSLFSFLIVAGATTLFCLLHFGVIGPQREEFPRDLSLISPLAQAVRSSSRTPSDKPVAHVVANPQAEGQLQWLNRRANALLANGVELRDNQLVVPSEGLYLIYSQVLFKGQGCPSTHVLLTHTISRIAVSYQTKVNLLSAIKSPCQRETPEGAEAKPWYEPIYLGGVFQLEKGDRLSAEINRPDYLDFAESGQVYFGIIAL
Data set [18] in a line: intracellular Trypanosoma cruzi inhibitors in host cells – cell-based, plate reader, cherry-pick samples, set 3, dose response (AID 651818).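 Also: compounds incubated with infected cells for about four days.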 The class given is functional.
Data set [19] has as its target T4, Cytochrome P450 1A2 (Homo sapiens, UniProt P05177).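 Also: PubChem cytochrome P450 panel assay, CYP1A2 panel member.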
T4 sequence (P05177 whole entry): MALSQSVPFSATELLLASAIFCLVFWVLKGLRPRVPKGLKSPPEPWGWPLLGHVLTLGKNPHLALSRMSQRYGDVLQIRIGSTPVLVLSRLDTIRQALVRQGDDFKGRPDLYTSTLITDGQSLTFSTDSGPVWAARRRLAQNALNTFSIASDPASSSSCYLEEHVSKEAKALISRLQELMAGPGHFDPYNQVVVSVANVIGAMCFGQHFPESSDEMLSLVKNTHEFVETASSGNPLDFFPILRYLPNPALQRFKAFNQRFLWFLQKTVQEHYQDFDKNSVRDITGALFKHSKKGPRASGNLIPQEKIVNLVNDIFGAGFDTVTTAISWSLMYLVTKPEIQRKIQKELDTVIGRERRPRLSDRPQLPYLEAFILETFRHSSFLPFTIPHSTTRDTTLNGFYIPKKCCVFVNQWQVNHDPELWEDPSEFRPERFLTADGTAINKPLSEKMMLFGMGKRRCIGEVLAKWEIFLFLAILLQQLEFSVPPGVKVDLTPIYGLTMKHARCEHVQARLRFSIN

Sequence of Cytochrome P450 2C9 (P11712 whole entry): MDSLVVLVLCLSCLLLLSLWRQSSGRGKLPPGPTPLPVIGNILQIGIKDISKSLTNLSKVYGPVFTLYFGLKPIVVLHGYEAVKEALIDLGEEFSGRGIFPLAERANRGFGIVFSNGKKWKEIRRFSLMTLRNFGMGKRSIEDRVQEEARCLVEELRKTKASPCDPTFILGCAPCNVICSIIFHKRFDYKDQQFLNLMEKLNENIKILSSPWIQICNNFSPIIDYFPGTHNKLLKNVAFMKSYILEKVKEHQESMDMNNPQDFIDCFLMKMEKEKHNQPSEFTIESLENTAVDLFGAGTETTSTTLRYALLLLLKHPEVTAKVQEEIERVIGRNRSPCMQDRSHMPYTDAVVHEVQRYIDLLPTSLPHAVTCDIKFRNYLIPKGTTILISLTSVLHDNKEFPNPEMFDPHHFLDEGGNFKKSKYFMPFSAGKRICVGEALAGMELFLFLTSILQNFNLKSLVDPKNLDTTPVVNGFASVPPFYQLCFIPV

Consider `Cc1c(C(=O)c2ccc3ccccc3c2)c2cccc3c2n1[C@H](CN1CCOCC1)CO3`, for which the concentration at half-maximal activity (AC50) entry in data set [1] was “inconclusive”. On the same count and under the same terms, next, `Cc1cccc(C(=O)Nc2nnc(-c3ccc(C(C)(C)C)cc3)s2)c1`: “inconclusive”. On to `NC1=NC2=C(CCCC2)C2(CCCCC2)S1`, for which the concentration for a half-maximal effect (EC50) is 9.28 µM (active) in data set [2], > 120 µM (not active) in data set [3], 1.19 µM (active) in [4] and 34.5 µM (active) in [5]. In the case of `Cc1nc2nc(C)c(NS(=O)(=O)c3ccc4c(c3)CCCC4)c(O)n2n1`, the AC50 in data set [6] was 136 µM (active).

Consider `O=C(O)c1cc2ccccc2c(N=Nc2cccnc2)c1O`, for which the AC50 in [6] was 11.4 µM (active). In the case of `Cc1c(N(C)S(=O)(=O)c2cc(C(=O)NCC3CCCO3)ccc2Cl)c(=O)n(-c2ccccc2)n1C` (stereo not given), in data set [4], the EC50 was 1.88 µM (active).

Take `CCOC(=O)C1(CCc2ccccc2)CCN(Cc2cccc3c2OCO3)CC1`: in data set [4], the EC50 is 0.668 µM (active). In the case of `CNCc1c(OCc2ccccc2)ccc2ccccc12`, the EC50 in data set [4] is 3.76 µM (active). For `COc1ccc(C)cc1-n1nnnc1SCn1nnc2ccccc2c1=O`, the IC50 in data set [7] and in data set [8] was > 66 µM (inactive) in each case.

`Cc1cccc(Cn2c(C(C)(C)C)cc3cccnc32)c1`: the EC50 in data set [4] is 0.531 µM (active). As for `CN(CC(=O)Nc1cccc(F)c1)C(=O)CNS(=O)(=O)c1ccc(N(C)C)c([N+](=O)[O-])c1`, the IC50 in data set [7] and in data set [8] was > 66 µM (inactive) in each case. As for `COc1ccc(-n2c(=O)c(-c3cn(C)c4ccccc34)nc3cncnc32)cc1`, the AC50 entry in [1] is reported as “inconclusive”. Regarding `Cc1c(CCOC(=O)C23CC4CC(CC(C)(C4)C2)C3)sc[n+]1CC(=O)c1ccccc1`, the AC50 in [9] is 1.96 µM (active); in [10], 20.5 µM (active); in data set [11], 8.8 µM (active); in [12] it was 5.26 µM (active); in data set [13], 5.44 µM (active). `CN1CCN(C2=C(Cl)C(=O)N(CCc3ccccc3)C2=O)CC1`: the IC50 in data set [7] is > 66 µM (inactive); in data set [8], 49.1 µM (inactive). Consider `COc1ccc(S(=O)(=O)N2CCC[C@H]2C(=O)NC2=NCCS2)cc1`, for which the values for the AC50 in data set [14], in data set [1] and in [15] (read-out: AC50) were 17.8 µM (inconclusive), “inconclusive” and 35.5 µM (inconclusive), respectively. Take `CC(=O)N1CCc2cc(S(=O)(=O)N3CCN(c4ccc(Cl)cc4)CC3)ccc21`: the IC50 in data set [16] and in [17] was > 20 µM (inactive) each time. Consider `CCOC(=O)C1(Cc2cccc(OC)c2)CCN(Cc2ccc(OC)c(O)c2)CC1`, for which, in data set [4], the EC50 is 0.944 µM (active). In the case of `Br.CCCCN1C2=NCCCN2c2ccccc21`, the AC50 result in data set [1] and in data set [15] was “inconclusive” in each case. Take `CC1(C)CC2=Nc3ccccc3NC(c3ccccc3F)C2=C(O)C1` (stereo not given): the IC50 in [7] and in data set [8] was > 66 µM (inactive) each time. On to `Cc1noc(C)c1S(=O)(=O)Nc1ccc2c(c1)CC(=O)N([C@H](C)CO)C[C@@H](C)[C@@H](CN(C)Cc1ccc(C(=O)Nc3ccccc3N)cc1)O2`, for which the AC50 in [18] is 3.1 µM (active).

Consider `Cc1noc(C)c1S(=O)(=O)Nc1ccc2c(c1)CC(=O)N([C@H](C)CO)C[C@@H](C)[C@H](CN(C)Cc1ccc(Cl)c(Cl)c1)O2`, for which the AC50 in data set [18] is 6.32 µM (active).

For `Cc1ccc(S(=O)(=O)Nc2ccc3c(c2)CC(=O)N([C@@H](C)CO)C[C@@H](C)[C@@H](CN(C)Cc2ccc(-c4ccccc4)cc2)O3)cc1`, the AC50 in data set [18] is 3.03 µM (active). Turning to `C[C@H]1CN([C@@H](C)CO)C(=O)c2cccc(NS(=O)(=O)c3ccccc3)c2O[C@H]1CN(C)Cc1ccc(Oc2ccccc2)cc1`, in [18], the half-maximal activity concentration (AC50) was 6.61 µM (active). `C[C@@H]1CCCCO[C@H](CN(C)CC2CCCCC2)[C@@H](C)CN([C@H](C)CO)C(=O)c2cc(NC(=O)Nc3ccc(F)cc3)ccc2O1`: the AC50 in data set [18] is 2.33 µM (active).

With `COc1ccc(CNC(=O)N(C)C[C@H]2OCc3ccccc3-c3c(n(C)c4ccccc34)C(=O)N([C@H](C)CO)C[C@@H]2C)cc1`, the AC50 in [9] is < 0.26 µM (active); in [10], 60.8 µM (active); in data set [11], < 0.26 µM (active); in data set [13] it was < 0.26 µM (active). For the compound `COc1ccc(CNc2ncnc3ccc(-c4ccccc4CN(C)C)cc23)c(OC)c1`, the AC50 result is “inconclusive” in data set [1] and 31.6 µM (inconclusive) in data set [19].
